# Experimental data published in patent US9283236B2 (HUMAN MATRIX SCIENCES, LLC, priority 2008, dated 2016).
# “Also recorded” adds a separate entry of the source. Like-named read-outs stand apart in the source and are kept apart here.
# Tests used:
# [1] = tested on: human fetal cardiac fibroblasts; test: Quantitative assay of [3H]valine-labeled insoluble elastin; type: cell-based; conditions: for effect on aldosterone-induced increase in insoluble elastin production: agent added 1 hour before aldosterone (50 nM or 1 to 50 nmol/L)
# [2] = tested on: human fetal cardiac fibroblasts; test: One-step RT-PCR of elastin mRNA in cardiac fibroblast cultures; type: cell-based; conditions: for effect on aldosterone-induced increase in elastin mRNA levels: agent added 1 hour (CT04 2 hours) before aldosterone
# [3] = tested on: human fetal cardiac fibroblasts; test: Immunostaining of collagen type I fibers in confluent cultures; type: cell-based; conditions: pretreatment before 1 to 50 nmol/L aldosterone; RU 486 1 μmol/L; FIG. 1
# [4] = tested on: human fetal cardiac fibroblasts; test: One-step RT-PCR of collagen type I mRNA in cardiac fibroblast cultures; type: cell-based; conditions: 1 hour pretreatment before 1 to 50 nmol/L aldosterone; spironolactone 2 μmol/L, RU 486 1 μmol/L
# [5] = tested on: adult human cardiac fibroblasts; test: Anti-elastin immunostaining in adult cardiac fibroblasts; type: cell-based; conditions: spironolactone pretreatment
# Experimental: Control cell cultures received an equal amount of the solvent vehicle. […] ScienCell (San Diego, Calif.). At the end of the 72-hour incubation period with the indicated treatment, confluent cultures were either fixed in ice-cold 100% methanol at -20° C. […] The cultures were then incubated for 1 hour with 10 μg/ml polyclonal antibody to tropoelastin or with 10 μg/ml polyclonal antibody to collagen type I. All cultures were then incubated for an additional hour with fluorescein-conjugated goat anti-rabbit or with fluorescein-conjugated rabbit anti-goat secondary antibodies to detect elastin and collagen type I staining, respectively. Nuclei were counterstained with propidium iodide. Secondary antibody alone was used as a control. All of the cultures were then mounted in Elvanol and examined with a Nikon Eclipse […] microscope attached to a cooled charge-coupled device camera (Retiga EX; QImaging, Surrey, BC, Canada) and a computer-generated video analysis system (Image-Pro Plus software; Media Cybernetics, Silver Spring, Md.).
# [6] = tested on: human fetal cardiac fibroblasts; test: Quantitative assay of [3H]valine-labeled immunoprecipitable tropoelastin; type: cell-based; conditions: spironolactone with 1 to 50 nmol/L aldosterone, 72 hours
# Experimental: Fetal human cardiac fibroblasts were grown to confluence in 35-mm culture dishes (100,000 cells/dish) in quadruplicate. […] Cultures were incubated for 72 hours, and the soluble and insoluble elastin were assessed separately in each dish. The cells were extensively washed with phosphate-buffered saline, and the soluble proteins present in the intracellular compartments were extracted overnight at 4° C. with 0.1 mol/L acetic acid in the presence of proteinase inhibitors. After centrifugation, the supernatants were precleaned by 30-minute incubation with 50 μl of 4% protein A-beaded agarose, and then 500 μl of the supernatant was incubated with 5 μg of polyclonal antibody to tropoelastin for 2 hours and subsequently with 50 μl of 4% protein A-beaded agarose for 3 hours at 4° C. The protein A-containing beads were sedimented by centrifugation, washed with immunoprecipitation buffer, mixed with scintillation fluid, and counted. […] The resulting pellets containing the insoluble elastin were then solubilized by boiling in 200 μl of 5.7 N HCl for 1 hour, and the aliquots were mixed in scintillation fluid and counted. […] Final results reflecting amounts of metabolically labeled insoluble elastin in individual cultures were normalized per their DNA content and expressed as counts per minute per 1 μg of DNA.
# [7] = tested on: adult human cardiac fibroblasts; test: One-step RT-PCR of elastin mRNA in adult cardiac fibroblasts; type: cell-based; conditions: 1 hour pretreatment before aldosterone
# [8] = tested on: IGF-IR; test: IGF-IR immunoprecipitation and anti-phosphotyrosine blot; type: cell-based, human
# Experimental: Cells were lysed using an radioimmunoprecipitation assay buffer [50 mmol/L Tris-HCl, pH 7.4, 150 mmol/L NaCl, 1 mmol/L ethylenediamine tetraacetic acid, 10 mmol/L NaF, 1% Triton X-100, 0.1% sodium dodecyl sulfate, 1% sodium deoxycholate containing a cocktail of antiproteases (20 μg/ml leupeptin, 10 μg/ml aprotinin, 0.1 mmol/L phenylmethylsulfonyl fluoride, and 1 mmol/L dithiothreitol) and antiphosphates ([…] orthovanadate and 2 μg/ml pepstatin)], and 300 μg of protein extract was incubated with an antibody against IGF-IRβ for 1 hour at 4° C., followed by the addition of 4% protein A-beaded agarose left overnight, as previously described. The resulting protein-antibody conjugate was centrifuged at 4° C. and washed four times with phosphate-buffered saline. The final pellet was resuspended in sample buffer (0.5 mol/L Tris-HCl, pH 6.8, 10% sodium dodecyl sulfate, 10% glycerol, 4% 2-B-mercaptoethanol, and 0.05% bromphenol blue), and the mixture was boiled for 5 minutes. Proteins were resolved by 12% sodium dodecyl sulfate-polyacrylamide gel electrophoresis, transferred to nitrocellulose membranes, and then immunoblotted with anti-p-Tyr or anti-IGF-IR antibodies. The degree of expression or phosphorylation of immunodetected signaling molecules was measured by densitometry.
# At the end of each experiment the cells were lysed as specified above, and 300 μg of protein extract were then precleared for 1 hour with normal rabbit agarose conjugated-IgG at 4° C. and incubated with rabbit polyclonal antibodies against IGF-IR-β, c-Src, or with Gα13 for 1 hour at 4° C., followed by the addition of 4% protein A-beaded agarose and left overnight. The resulting protein-antibody conjugate was centrifuged at 4° C. and washed four times with PBS. The final pellet was resuspended in sample buffer, and the proteins were resolved. Following immunoprecipitation of IGF-IR-β, the membrane was immunoblotted using monoclonal anti-p-Tyr antibody, stripped, and reprobed using anti-IGF-IR-β. Following immunoprecipitation of c-Src, the membranes were immunoblotted using polyclonal goat antibodies against anti-Gα13, while those immunoprecipitated with anti-Gα13 were developed with monoclonal anti-c-Src antibody. Blots were stripped and re-probed for equal loading.
# The degree of expression or phosphorylation of immunodetected signaling molecules was measured by densitometry.
# [9] = tested on: Gα13 and c-Src; test: Co-immunoprecipitation of Gα13 and c-Src; type: cell-based, human; conditions: vs untreated controls
# [10] = agent added before aldosterone, readout not specified, partly data not shown
molecule,measurement,setting,value
CC(C)(C)c1cc(C=C(C#N)C#N)cc(Br)c1O [AG 1024],effect on aldosterone-induced increase in insoluble elastin production,[1]; 72 hours,eliminated the stimulatory effect of aldosterone on elastin mRNA expression and insoluble elastin production; also recorded: returned insoluble elastin production to control values
same,effect on IGF-I-induced increase in insoluble elastin production,"[1]; pretreatment or siRNA transfection before 100 ng/ml IGF-I, 72 hours",could be prevented; also recorded: returned insoluble elastin production to control values
same,effect on aldosterone-induced increase in elastin mRNA levels,[2]; 24 hours,eliminated the stimulatory effect of aldosterone on elastin mRNA expression; also recorded: abolished aldosterone- and IGF-I-induced increases in elastin mRNA transcript levels
same,effect on IGF-I-induced increase in elastin mRNA levels,[2]; pretreatment or siRNA transfection before 100 ng/ml IGF-I,could be prevented; also recorded: abolished aldosterone- and IGF-I-induced increases in elastin mRNA transcript levels
Cc1cc2ncc(-c3ccccc3)nc2cc1C [AG 1295],effect on aldosterone-induced increase in elastin production (elastogenic response),[1]; [10],did not affect the aldosterone-induced increase in elastin production
COc1cc2ncnc(Nc3cccc(Cl)c3)c2cc1OC [AG 1478],effect on aldosterone-induced increase in elastin production (elastogenic response),[1]; [10],did not affect the aldosterone-induced increase in elastin production
COc1cccc(-c2cc(=O)c3ccccc3o2)c1N [PD 98059],"insoluble elastin production, inhibitor alone","[1]; 10 μM, 72 hours, 10% FBS, vs untreated control",significantly increased insoluble elastin production
same,effect on aldosterone-induced increase in insoluble elastin production,[1]; 72 hours,did not eliminate the elastogenic effect of aldosterone but instead led to a further increase in the production of elastin; also recorded: further increased insoluble elastin production
Cc1cc(Cn2cnc3c2C[C@@H](C(=O)O)N(C(=O)C(c2ccccc2)c2ccccc2)C3)ccc1N(C)C [PD 123319],effect on aldosterone-induced increase in elastin production (elastogenic response),[1]; [10],did not abrogate their elastogenic response to aldosterone
"CC#C[C@]1(O)CC[C@H]2[C@@H]3CCC4=CC(=O)CCC4=C3[C@@H](c3ccc(N(C)C)cc3)C[C@@]21C [RU 486, mifepristone]",effect on aldosterone-induced increase in elastin mRNA levels,[2]; 24 hours,had no effect on the aldosterone-induced increase in elastin mRNA levels; also recorded: neither spironolactone nor RU 486 eliminated this increase
same,effect on aldosterone-induced collagen production,[3],"but not with the glucocorticoid receptor (GR) antagonist RU 486 (1 μmol/L), abrogated aldosterone-induced collagen production"
same,effect on aldosterone-induced increase in collagen type I mRNA levels,[4],had no effect on the aldosterone-induced increase in collagen type I mRNA transcript levels
NC(=O)c1ccc(-c2nc(-c3ccc4c(c3)OCO4)c(-c3ccccn3)[nH]2)cc1 [SB 431542],effect on aldosterone-induced increase in elastin production (elastogenic response),[1]; [10],did not affect the aldosterone-induced increase in elastin production
C[C@@H](N)[C@H]1CC[C@H](C(=O)Nc2ccncc2)CC1 [Y-27632],effect on aldosterone-induced increase in elastin production (elastogenic response),[1]; [10],did not eliminate the aldosterone-induced increase in elastin mRNA expression and elastin production
same,effect on aldosterone-induced increase in elastin mRNA levels,[2]; 24 hours,did not eliminate the aldosterone-induced increase in elastin mRNA expression
"CCCCc1nc(Cl)c(CO)n1Cc1ccc(-c2ccccc2-c2nn[nH]n2)cc1 [losartan, Losartan]",effect on aldosterone-induced increase in elastin production (elastogenic response),[1]; [10],did not abrogate their elastogenic response to aldosterone
CC(=O)S[C@@H]1CC2=CC(=O)CC[C@]2(C)[C@H]2CC[C@@]3(C)[C@@H](CC[C@@]34CCC(=O)O4)[C@H]12 [spironolactone],effect on aldosterone-induced increase in insoluble elastin production,[1]; 72 hours,failed to prevent; also recorded: did not eliminate the increase in insoluble elastin production
same,effect on aldosterone-induced increase in elastin mRNA levels,[2]; 24 hours,failed to prevent an aldosterone-induced increase in elastin mRNA expression; also recorded: neither spironolactone nor RU 486 eliminated this increase
same,"effect on aldosterone-induced increase in elastic fiber deposition, adult cardiac fibroblasts",[5],did not affect aldosterone-induced increase in elastic fiber deposition
same,effect on aldosterone-induced collagen production,[3],abrogated aldosterone-induced collagen production; also recorded: eliminated any aldosterone-induced increase in collagen type I production
same,effect on aldosterone-induced increase in collagen type I mRNA levels,[4],returned the aldosterone-induced increase in collagen type I mRNA levels to untreated values
same,effect on aldosterone-induced increase in tropoelastin production,[6],failed to prevent; also recorded: did not abrogate the increase in tropoelastin production
same,"effect on aldosterone-induced increase in elastin mRNA, adult cardiac fibroblasts",[7],had no effect on the aldosterone-induced increase in elastin mRNA transcript levels
CN[C@@H]1C[C@H]2O[C@@](C)([C@@H]1OC)n1c3ccccc3c3c4c(c5c6ccccc6n2c5c31)C(=O)NC4 [staurosporine],effect on aldosterone-induced increase in elastin production (elastogenic response),[1],did not abrogate the aldosterone-induced increase in elastin production
"CT04: cell-permeable Rho inhibitor (exoenzyme C3 transferase) from Cytoskeleton, Inc.",effect on aldosterone-induced increase in elastin production (elastogenic response),[1]; [10],did not eliminate the aldosterone-induced increase in elastin mRNA expression and elastin production
same,effect on aldosterone-induced increase in elastin mRNA levels,[2]; 24 hours,did not eliminate the aldosterone-induced increase in elastin mRNA expression
IGF-I: recombinant human insulin-like growth factor-I,tyrosine phosphorylation of the IGF-IR,"[8]; 10-minute exposure, 10% fetal bovine serum, aldosterone or BSA-conjugate 50 nM, IGF-I 100 ng/ml",produced a very similar effect
same,"tyrosine phosphorylation of the IGF-IR, dependence on serum",[8]; presence vs absence of fetal bovine serum,"induced phosphorylation of its IGF-IR, both in the presence and in the absence of fetal bovine serum"
same,net production of insoluble elastin,"[1]; 100 ng/ml IGF-I, 72 hours",approximately threefold increase
same,elastin mRNA levels,"[2]; 100 ng/ml IGF-I, 24 hours",approximately threefold increase
aluminum fluoride,interaction between c-Src and Gα13,[9],increased the interaction between c-Src and Gα13
pertussis toxin,effect on aldosterone-induced increase in insoluble elastin production,[1]; 72 hours,did not inhibit the elastogenic effect of aldosterone
same,effect on aldosterone-induced increase in elastin production (elastogenic response),[1]; [10],did not abrogate the aldosterone-induced increase in elastin production; also recorded: does not attenuate the pro-elastogenic effect of aldosterone
